For one experiment, the system named is Refmab #1. The experiment can be described thus: Refmab #1 titration on engineered TF-1 cells (flow cytometry). In kind it is binding. The conditions noted are these: 5-0.00015 μg/mL antibody; 4° C. As to the method: Binding of Refmab #1 was assessed in a flow cytometry assay. TF-1 cells were seeded at a cell concentration of 1,000,000 cells/ml in FACS Buffer (PBS+2% FCS+1 mM EDTA). After a Fc blocking using 1:20 diluted TruStain (BioLegend, #422302) in FACS buffer for 15 minutes at 4° C., cells were washed twice with FACS buffer. Subsequently, a SR-1 titration was added to the cells using 5-0.00015 μg/mL antibody for 30 minutes at 4° C. on a plate shaker. Cells were washed twice with FACS buffer and a secondary labelled antibody (IgG (H+L) Cross-Adsorbed Goat anti-Human, Alexa Fluor® 488, Invitrogen, A11013) was added to the cells for 30 minutes at 4° C. on a plate shaker. Cells were washed twice with FACS buffer, before adding 1:100 diluted solution of 7AAD staining (cell viability) in FACS buffer for a couple of minutes and analyzing the cells using the Novocyte Quanteon (Agilent).
Sequence of Refmab #1 (as listed by the source): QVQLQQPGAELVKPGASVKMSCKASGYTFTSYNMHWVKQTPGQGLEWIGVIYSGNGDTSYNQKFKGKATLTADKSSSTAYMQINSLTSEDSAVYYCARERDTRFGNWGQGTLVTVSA
Sequence of Refmab #1 (as listed by the source): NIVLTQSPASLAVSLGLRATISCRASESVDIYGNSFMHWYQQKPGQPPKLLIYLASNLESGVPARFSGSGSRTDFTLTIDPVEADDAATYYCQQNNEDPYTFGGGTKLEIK

The subject of experiment [1] is antibody Refmab #1. The experiment can be described thus: Octet screen: binding of CD117 D1-2-3 variants to captured Refmab #1. The conditions noted are these: nm shift at end of association, top analyte concentration (500 nM). A digest of the protocol: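 Refmab #1 captured on anti-human Fc biosensors; human CD117 D1-2-3 wt or variants flowed as analyte at 500, 50 and 5 nM, 25° C., 300 s association/900 s dissociation, buffer-referenced. Binding level at top concentration, end of association, expressed as percent of wild type; 1:1 fits where possible.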
Background: In BLI a coated tip is dipped into the sample, and binding shifts an interference pattern.

Experiment [2] concerns TF-1 cells. The experiment can be described thus: SCF-dependent proliferation, SCF titration on TF-1 cells with CD117 variants (CellTiter-Glo). The experiment is classed as cell-based, human. The conditions noted are these: for EC50 Average: average of two experiments; for EC50 Experiment #1 / EC50 Experiment #2: titration of SCF, 3 days, TF-1 cells with the CD117 variant. As to the method: In another experiment, SCF-dependent proliferation of variants E73K, E73Y, D121K, S123F and S123K was compared against wildtype CD117. TF-1 cells were seeded at a cell concentration of 150 000 cells/ml in sterile, white cell culture treated plates with transparent bottom in RPMI+GlutaMax+10% FCS. Cells were treated with a titration of SCF. After 3 days of incubation a CellTiter-Glo 2.0 assay (Promega) was performed, luminescence was read in a luminometer (Envision plate reader) and EC50's was determined. Two different experiments with triplicates in each experiment were performed.
A general note: ATP-based viability assays read luminescence as a measure of living cells.

In experiment [3] the test system is TF-1 cells. The experiment can be described thus: SCF-dependent phosphorylation of CD117 variants in TF-1 cells (Tyr719 ELISA). The experiment is classed as cell-based, human. Particulars: 1-20 ng/ml SCF for 5 minutes. As to the method:
TF-1 cells (wild type, knock out, and variants E73K, D121K and S123K of CD117) were seeded at a concentration of 1 million cells/ml in 2 ml of Medium (RPMI1640 supplemented with GlutaMAX+10% heat inactivated FBS) in a 6-well plate. Cells were treated with 1-20 ng/ml recombinant human SCF (1 mg/ml PeproGMP Recombinant Human SCF) for 5 minutes, before cell collection. Cells were washed with ice-cold PBS, before resuspending cells in 500 μL Lysis Buffer (Lysis buffer from Signaling containing Protease Inhibitor and Phosphatase Inhibitor). Cells were flash frozen in liquid nitrogen and thawed at 37° C. twice, before freezing them at −80° C. until further usage. Undiluted samples were thawed and processed according to the manufacturers protocol for the PathScan Phospho-c-Kit (Tyr719) Sandwich ELISA Kit (Cell Signaling). Absorbance (OD_450 nm) was assessed using the Envision (Perkin Elmer).

In experiment [4] the test system is antibody Refmab #1. The experiment can be described thus: Octet titration, steady state KD of CD117 D1-2-3 variants to Refmab #1. The experiment is classed as binding. Particulars: nm shift higher than 0.1 nm counts as binding. Here is the method: To further characterize binding of Refmab #1 to CD117 D1-2-3 variants E73K, E73L, E73R, E73Y, D121H, D121K, S123K and S123F, the analytes were titrated at 7 different concentrations (from 2000 nM to 5 nM). Antibody Refmab #1 was captured by AHC biosensors for 300 s at 0.5 to 1 μg/mL. Association and dissociation to Refmab #1 was extended to 600 s and 1000 s, respectively. Steady state analysis was performed.

The next experiment concerns Refmab #2. The experiment can be described thus: Octet: binding of CD117 variants to Refmab #2. Particulars: qualitative Octet analysis. As to the method:
A more sophisticated analysis of binding to the elected variants was performed with antibody Refmab #1. Binding of Refmab #1 to wt and variants (analyte) was measured in an Octet system RED96e or R8 at 25° C. with shaking at 1,000 rpm using 1× kinetic buffer (Sartorius, PN: 18-1105). First, the elected variants were screened for their ability to bind Refmab #1 using three different concentrations of analytes. Antibody Refmab #1 was captured by Anti-Human Fc capture biosensor (AHC) (Sartorius, PN: 18-5060) for 300 s at 0.5 to 1 μg/mL. As an analyte, human CD117 wt and variants, containing only domains 1, 2 and 3 (CD117 D1-2-3), was titrated at 500 nM, 50 nM and 5 nM. Association and dissociation of the analyte to Refmab #1 was monitored for 300 s and 900 s, respectively. Reference subtraction was performed against buffer only wells. AHC tips were regenerated using 10 mM Gly-HCl pH 1.7. Data were analyzed using the Octet Data Analysis software HT 12.0. Data were fitted (when possible) to a 1:1 binding model. Kinetic rates ka and […] globally fitted. Binding level of the elected variants were compared to wild type and are shown as percent in FIG. 7. For this qualitative analysis, the binding level of the top analyte concentration at end of the association step was used.
A similar experiment to that in Example 7 was performed, but utilizing Refmab's #2 and #3.

The target of another experiment is T1, SCF (Homo sapiens, UniProt P21583).
T1 construct: purchased Acros Biosystems SCF-H82E1
T1 sequence (P21583 26-273): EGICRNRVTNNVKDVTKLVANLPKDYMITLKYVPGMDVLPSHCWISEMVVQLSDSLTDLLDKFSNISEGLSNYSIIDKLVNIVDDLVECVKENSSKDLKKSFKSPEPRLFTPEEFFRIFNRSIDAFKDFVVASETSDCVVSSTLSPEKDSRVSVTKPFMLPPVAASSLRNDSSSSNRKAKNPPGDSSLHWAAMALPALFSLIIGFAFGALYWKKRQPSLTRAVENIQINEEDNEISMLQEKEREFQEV
The experiment can be described thus: Octet: binding of CD117 D1-2-3 variants to SCF. Particulars: CD117 D1-2-3 constructs; steady state. As to the method:
SCF binding is one function of CD117. SCF binding is important for the transmission of functional signals by CD117. Binding of the elected variants to SCF was measured on an Octet system RED96e or R8 at 25° C. with shaking at 1000 rpm using 1× Kinetic Buffer (Sartorius, PN: 18-1105). […] Domain 1, 2, 3 comprise the binding site for SCF. Domains 4 and 5 were used as a negative, non-binding control.
CD117 D1-2-3 wt and variants thereof are titrated with different concentrations from 1000 to 5 nM. Association was monitored for 300 s and dissociation for 600 s. Binding to human CD117 domain 4 and 5 (CD117 D4-5) was performed under the same conditions as non-binding control. Reference subtraction was performed against buffer only wells. Biosensors were not regenerated and a new set of SA biosensors was used for each analyte. Data were analyzed using the Octet Data Analysis software HT 12.0. Steady state data analysis was performed due to the fast on/off nature of the interaction.

Experiment [5] addresses T2, human wild-type CD117 (human, UniProt P10721 26-976).
T2 construct: also called wt CD117; KIT
The experiment can be described thus: flow cytometry, HEK-293T with wt CD117 vs vector alone, IgG at 0.125 µg/mL.
Method: Binding of the antibodies to the transfected cells and the optimal assay conditions were evaluated in 384-well format. Detection of cellular expression was measured via high-throughput flow cytometry. Serial dilutions of each antibody were tested for immunoreactivity against cells expressing CD117 or vector alone. The optimal screening concentration for each antibody was determined based on the raw signal values and signal-to-background calculations. Each point represents the mean of four replicates.

Experiment [6] concerns the target T2, human wild-type CD117. The experiment can be described thus: flow cytometry, HEK-293T with wt CD117 vs vector alone, Fab at 1.00 µg/mL.

“Also recorded” adds a separate entry of the source.

As to “D121K: variant of human CD117 with substitution D121K”, in the experiment on Refmab #1, the “Binding of Refmab #1 to TF-1 cells expressing the CD117 variant” value is recorded as “completely abolished”. Besides, in the experiment with antibody Refmab #1 [1], the “binding to Refmab #1 compared to wild type” value is reported as “particular strong decrease in binding”. Besides, in the experiment with TF-1 cells [2], the “EC50 Average” value was 3.70 ± 0.45 ng/mL, the “EC50 Experiment #1” value is 4.15 ng/mL and the “EC50 Experiment #2” value was found to be 3.25 ng/mL. In addition, the “SCF-dependent phosphorylation at position Tyr719 of CD117” value in the experiment with TF-1 cells [3] was “showed a SCF-dependent phosphorylation”. The “binding of Refmab #1 at 2000 nM variant” value in the experiment on antibody Refmab #1 [4] is listed as “No binding”.
As for “S123K: variant of human CD117 with substitution S123K”, in the experiment on Refmab #1, the “Binding of Refmab #1 to TF-1 cells expressing the CD117 variant” value is “completely abolished”. The “binding to Refmab #1 compared to wild type” value with antibody Refmab #1 [1] is recorded as “particular strong decrease in binding”. For the same molecule, in the experiment with TF-1 cells [2], the “EC50 Average” value is 3.54 ± 0.23 ng/mL, the “EC50 Experiment #1” value worked out at 3.76 ng/mL and the “EC50 Experiment #2” value was 3.31 ng/mL. In addition, the “SCF-dependent phosphorylation at position Tyr719 of CD117” value in the experiment on TF-1 cells [3] was “showed a SCF-dependent phosphorylation”. Besides, the “binding of Refmab #1 at 2000 nM variant” value with antibody Refmab #1 [4] is on record as “No binding”.

B1: S239H: variant of human CD117 with substitution S239H (protein)
chain: QPSVSPGEPSPPSIHPGKSDLIVRVGDEIRLLCTDPGFVKWTFEILDETNENKQNEWITEKAEATNTGKYTCTNKHGLSNSIYVFVRDPAKLFLVDRSLYGKEDNDTLVRCPLTDPEVTNYSLKGCQGKPLPKDLRFIPDPKAGIMIKSVKRAYHRLCLHCSVDQEGKSVLSEKFILKVRPAFKAVPVVSVSKASYLLREGEEFTVTCTIKDVHSSVYSTWKRENSQTKLQEKYNSWHHGDFNYERQATLTISSARVNDSGVFMCYANNTFGSANVTTTLEVVDKG
Consider B1, for which, in the experiment with Refmab #2, the “binding to Refmab #2 compared to wild type CD117” value is recorded as “strong decrease in binding”. The “KD increase of SCF binding compared to wild type CD117” value in the experiment with SCF was “less than three-fold; also recorded: less than four-fold”.

B2: Refmab #5 (antibody, V domains shown)
VH: EVRLVESEGGLVQPRSSMKLSCTASGFTFSDYYMAWVRQVPEKGLEWVANINYDGSSTYYLDSLKSRFIISRDNAKNILYLQMSSLKSEDTATYYCARGDYYGTTYWYFDVWGTGTTVTVSS
VL: DIQMTQTTSSLSASLGDRVTISCRASQDISNYLNWYQQKPDGTVKLLIYYTSRLQSGVPSRFSGSGSGTDYSLTISNLEQEDIATYFCQQGKKLWSFGGGTKLEIKR
For B2, the “Signal:Background” value with human wild-type CD117 [5] was 10 ratio to background.

B3: Refmab #5 Fab fragment (Fab, V domains shown)
VH: EVRLVESEGGLVQPRSSMKLSCTASGFTFSDYYMAWVRQVPEKGLEWVANINYDGSSTYYLDSLKSRFIISRDNAKNILYLQMSSLKSEDTATYYCARGDYYGTTYWYFDVWGTGTTVTVSS
VL: DIQMTQTTSSLSASLGDRVTISCRASQDISNYLNWYQQKPDGTVKLLIYYTSRLQSGVPSRFSGSGSGTDYSLTISNLEQEDIATYFCQQGKKLWSFGGGTKLEIKR
For B3, in the experiment with human wild-type CD117 [6], the “Signal:Background” value is 7 ratio to background.

B4: Refmab #4 (antibody, V domains shown)
VH: EVQLVESGGGLVQPGGSLRLSCAASGFSISVYMMHWVRQAPGKGLEWVASIYPYSGYTYYADSVKGRFTISADTSKNTAYLQMNSLRAEDTAVYYCARYVYHALDYWGQGTLVTVSS
VL: DIQMTQSPSSLSASVGDRVTITCRASQSVSSAVAWYQQKPGKAPKLLIYSASSLYSGVPSRFSGSRSGTDFTLTISSLQPEDFATYYCQQWAVHSLITFGQGTKVEIKR
Turning to B4, in the experiment with human wild-type CD117 [5], the “Signal:Background” value is 7 ratio to background.

B5: Refmab #4 Fab fragment (Fab, V domains shown)
VH: EVQLVESGGGLVQPGGSLRLSCAASGFSISVYMMHWVRQAPGKGLEWVASIYPYSGYTYYADSVKGRFTISADTSKNTAYLQMNSLRAEDTAVYYCARYVYHALDYWGQGTLVTVSS
VL: DIQMTQSPSSLSASVGDRVTITCRASQSVSSAVAWYQQKPGKAPKLLIYSASSLYSGVPSRFSGSRSGTDFTLTISSLQPEDFATYYCQQWAVHSLITFGQGTKVEIKR
Regarding B5, in the experiment with human wild-type CD117 [6], the “Signal:Background” value is 6 ratio to background.

The values above are taken from patent publication US20250057951A1, “DISCERNIBLE CELL SURFACE PROTEIN VARIANTS OF CD117 FOR USE IN CELL THERAPY” (UNIVERSITÄT BASEL, priority 2021, published 2025).
